Results from patent US20240208992A1, “MACROCYCLES AS CFTR MODULATORS” (Idorsia Pharmaceuticals Ltd, priority 2021, published 2024).

Biological target: human F508del-CFTR (Homo sapiens, UniProt P13569, DEL508-508)
Test: F508del-CFTR cell surface expression (corrector activity), DiscoveRx ß-galactosidase complementation chemiluminescence assay in recombinant U2OS cell line;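 further: U2OS cells co-expressing ProLink-tagged F508del-CFTR and a membrane-anchored enzyme acceptor, where more surface CFTR restores β-galactosidase activity measured by chemiluminescence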
Details: U2OS cell line, 16h compound incubation; for EC50: EC50, F508del-CFTR cell surface expression, geomean values; for Emax: U2OS, in relation to the Emax of the corrector lumacaftor (=100%), arithmetic mean values

Sequence of human F508del-CFTR (P13569 with tags, fused parts or gaps DEL508-508): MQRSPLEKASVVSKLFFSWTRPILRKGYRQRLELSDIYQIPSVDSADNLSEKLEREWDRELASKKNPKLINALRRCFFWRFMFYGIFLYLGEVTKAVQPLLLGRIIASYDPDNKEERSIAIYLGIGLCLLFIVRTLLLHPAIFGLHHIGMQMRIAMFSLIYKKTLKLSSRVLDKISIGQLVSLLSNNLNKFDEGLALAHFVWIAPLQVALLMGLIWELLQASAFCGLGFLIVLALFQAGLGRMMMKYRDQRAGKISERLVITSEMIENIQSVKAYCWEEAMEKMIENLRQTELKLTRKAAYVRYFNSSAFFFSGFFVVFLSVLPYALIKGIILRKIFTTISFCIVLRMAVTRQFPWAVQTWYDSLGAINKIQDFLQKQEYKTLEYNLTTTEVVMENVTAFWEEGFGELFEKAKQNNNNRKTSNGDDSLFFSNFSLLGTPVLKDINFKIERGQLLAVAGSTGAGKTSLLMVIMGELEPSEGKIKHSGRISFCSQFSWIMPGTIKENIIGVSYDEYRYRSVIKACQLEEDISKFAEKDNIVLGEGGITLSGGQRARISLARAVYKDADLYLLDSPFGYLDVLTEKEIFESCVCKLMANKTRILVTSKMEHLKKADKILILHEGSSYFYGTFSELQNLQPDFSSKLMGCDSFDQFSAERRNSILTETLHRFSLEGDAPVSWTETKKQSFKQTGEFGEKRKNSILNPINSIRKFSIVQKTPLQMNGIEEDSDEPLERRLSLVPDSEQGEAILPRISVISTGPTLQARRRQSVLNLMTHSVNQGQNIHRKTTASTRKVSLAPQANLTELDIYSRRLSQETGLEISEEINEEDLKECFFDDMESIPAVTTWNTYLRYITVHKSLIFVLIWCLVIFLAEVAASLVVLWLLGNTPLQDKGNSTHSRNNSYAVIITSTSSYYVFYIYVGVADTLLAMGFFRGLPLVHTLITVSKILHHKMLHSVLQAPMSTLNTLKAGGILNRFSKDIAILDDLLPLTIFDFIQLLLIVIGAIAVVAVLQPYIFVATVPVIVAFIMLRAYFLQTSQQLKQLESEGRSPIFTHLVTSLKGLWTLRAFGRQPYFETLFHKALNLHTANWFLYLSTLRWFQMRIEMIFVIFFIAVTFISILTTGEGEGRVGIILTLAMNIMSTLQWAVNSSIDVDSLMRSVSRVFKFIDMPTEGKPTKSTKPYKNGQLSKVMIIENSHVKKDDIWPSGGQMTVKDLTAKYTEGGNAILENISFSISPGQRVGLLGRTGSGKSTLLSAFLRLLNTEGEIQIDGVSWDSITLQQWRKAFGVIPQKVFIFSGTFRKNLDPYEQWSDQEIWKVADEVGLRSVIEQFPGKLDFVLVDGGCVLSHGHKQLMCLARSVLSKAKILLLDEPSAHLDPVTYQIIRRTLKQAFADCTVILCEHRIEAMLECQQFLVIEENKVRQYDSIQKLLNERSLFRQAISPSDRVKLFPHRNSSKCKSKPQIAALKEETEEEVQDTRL

COc1nccc2c1C(=O)N[C@H](C(=O)NCCc1ccc3c(c1)OCO3)CC(=O)N(C)[C@@H](CC(C)C)C(=O)N(CCC1CCCCC1)CC(=O)N[C@H](Cc1ccccc1)CO2 [Example 281, (3R,9S,13S)-N-(2-(benzo[d][1,3]dioxol-5-yl)ethyl)-3-benzyl-7-(2-cyclohexylethyl)-9-isobutyl-16-methoxy-10-methyl-5,8,11,15-tetraoxo-2,3,4,5,6,7,8,9,10,11,12,13,14,15-tetradecahydropyrido[3,4-p][1]oxa[4,7,10,14]tetraazacycloheptadecine-13-carboxamide]
EC50: 110 nM
Emax: 361%

COc1cccc(CCNC(=O)[C@@H]2CC(=O)N(C)[C@@H](CC(C)C)C(=O)N(CCC3CCCCC3)CC(=O)N[C@H](Cc3ccccc3)COc3ccnc(OC)c3C(=O)N2)c1 [Example 282, (3R,9S,13S)-3-benzyl-7-(2-cyclohexylethyl)-9-isobutyl-16-methoxy-N-(3-methoxyphenethyl)-10-methyl-5,8,11,15-tetraoxo-2,3,4,5,6,7,8,9,10,11,12,13,14,15-tetradecahydropyrido[3,4-p][1]oxa[4,7,10,14]tetraazacycloheptadecine-13-carboxamide]
EC50: 114 nM
Emax: 360%

CCOc1cccc2c1C(=O)N[C@H](C(=O)NCCc1ccc3c(c1)OCCO3)CC(=O)N(C)[C@@H](CC(C)C)C(=O)C1CCC[C@@H](N1)C(=O)N[C@H](Cc1ccccc1)CO2 [Example 283, (7S,11S,20R,22aR)-20-benzyl-N-(2-(2,3-dihydrobenzo[b][1,4]dioxin-6-yl)ethyl)-14-ethoxy-7-isobutyl-8-methyl-6,9,13,22-tetraoxo-1,3,4,6,7,8,9,10,11,12,13,19,20,21,22,22a-hexadecahydro-2H-benzo[p]pyrido[2,1-f][1]oxa[4,7,10,14]tetraazacycloheptadecine-11-carboxamide]
EC50: 272 nM
Emax: 231%

COc1cccc2c1C(=O)N[C@H](C(=O)NCCc1ccc3c(c1)OCO3)CC(=O)N(C)[C@@H](CC(C)C)C(=O)N(C[C@H]1CCCCO1)CC(=O)N[C@H](Cc1ccccc1)CO2 [Example 305, (3R,9S,13S)-N-(2-(benzo[d][1,3]dioxol-5-yl)ethyl)-3-benzyl-9-isobutyl-16-methoxy-10-methyl-5,8,11,15-tetraoxo-7-(((R)-tetrahydro-2H-pyran-2-yl)methyl)-2,3,4,5,6,7,8,9,10,11,12,13,14,15-tetradecahydrobenzo[p][1]oxa[4,7,10,14]tetraazacycloheptadecine-13-carboxamide]
EC50: 533 nM
Emax: 123%

COc1cccc2c1C(=O)N[C@H](C(=O)NCCc1ccc3c(c1)OCO3)CC(=O)N(C)[C@@H](CC(C)C)C(=O)N(C[C@@H]1CCCCO1)CC(=O)N[C@H](Cc1ccccc1)CO2 [Example 306, (3R,9S,13S)-N-(2-(benzo[d][1,3]dioxol-5-yl)ethyl)-3-benzyl-9-isobutyl-16-methoxy-10-methyl-5,8,11,15-tetraoxo-7-(((S)-tetrahydro-2H-pyran-2-yl)methyl)-2,3,4,5,6,7,8,9,10,11,12,13,14,15-tetradecahydrobenzo[p][1]oxa[4,7,10,14]tetraazacycloheptadecine-13-carboxamide]
EC50: 923 nM
Emax: 139%

COc1cccc2c1C(=O)N[C@H](C(=O)NCCc1ccc3c(c1)OCO3)CC(=O)N(C)[C@@H](CC1CCCC1)C(=O)N(C[C@H]1CCCCO1)CC(=O)N[C@H](Cc1ccccc1)CO2 [Example 307, (3R,9S,13S)-N-(2-(benzo[d][1,3]dioxol-5-yl)ethyl)-3-benzyl-9-(cyclopentylmethyl)-16-methoxy-10-methyl-5,8,11,15-tetraoxo-7-(((R)-tetrahydro-2H-pyran-2-yl)methyl)-2,3,4,5,6,7,8,9,10,11,12,13,14,15-tetradecahydrobenzo[p][1]oxa[4,7,10,14]tetraazacycloheptadecine-13-carboxamide]
EC50: 423 nM
Emax: 113%

COc1cccc2c1C(=O)N[C@H](C(=O)NCCc1ccc3c(c1)OCO3)CC(=O)N(C)[C@@H](CC1CCCC1)C(=O)N(C[C@@H]1CCCCO1)CC(=O)N[C@H](Cc1ccccc1)CO2 [Example 308, (3R,9S,13S)-N-(2-(benzo[d][1,3]dioxol-5-yl)ethyl)-3-benzyl-9-(cyclopentylmethyl)-16-methoxy-10-methyl-5,8,11,15-tetraoxo-7-(((S)-tetrahydro-2H-pyran-2-yl)methyl)-2,3,4,5,6,7,8,9,10,11,12,13,14,15-tetradecahydrobenzo[p][1]oxa[4,7,10,14]tetraazacycloheptadecine-13-carboxamide]
EC50: 469 nM
Emax: 103%

COc1cccc2c1C(=O)N[C@H](C(=O)NCCc1ccc3c(c1)OCO3)CC(=O)N(C)[C@@H](CC1CCCCC1)C(=O)N(C[C@@H]1CCCCO1)CC(=O)N[C@H](Cc1ccccc1)CO2 [Example 309, (3R,9S,13S)-N-(2-(benzo[d][1,3]dioxol-5-yl)ethyl)-3-benzyl-9-(cyclohexylmethyl)-16-methoxy-10-methyl-5,8,11,15-tetraoxo-7-(((S)-tetrahydro-2H-pyran-2-yl)methyl)-2,3,4,5,6,7,8,9,10,11,12,13,14,15-tetradecahydrobenzo[p][1]oxa[4,7,10,14]tetraazacycloheptadecine-13-carboxamide]
EC50: 456 nM
Emax: 113%

COc1cccc(CCNC(=O)[C@@H]2CC(=O)N(C)[C@@H](CC(C)C)C(=O)N(C[C@H]3CCCCO3)CC(=O)N[C@H](Cc3ccccc3)COc3cccc(OC)c3C(=O)N2)c1 [Example 311, (3R,9S,13S)-3-benzyl-9-isobutyl-16-methoxy-N-(3-methoxyphenethyl)-10-methyl-5,8,11,15-tetraoxo-7-(((R)-tetrahydro-2H-pyran-2-yl)methyl)-2,3,4,5,6,7,8,9,10,11,12,13,14,15-tetradecahydrobenzo[p][1]oxa[4,7,10,14]tetraazacycloheptadecine-13-carboxamide]
EC50: 454 nM
Emax: 127%

COc1cccc(CCNC(=O)[C@@H]2CC(=O)N(C)[C@@H](CC(C)C)C(=O)N(C[C@@H]3CCCCO3)CC(=O)N[C@H](Cc3ccccc3)COc3cccc(OC)c3C(=O)N2)c1 [Example 312, (3R,9S,13S)-3-benzyl-9-isobutyl-16-methoxy-N-(3-methoxyphenethyl)-10-methyl-5,8,11,15-tetraoxo-7-(((S)-tetrahydro-2H-pyran-2-yl)methyl)-2,3,4,5,6,7,8,9,10,11,12,13,14,15-tetradecahydrobenzo[p][1]oxa[4,7,10,14]tetraazacycloheptadecine-13-carboxamide]
EC50: 727 nM
Emax: 111%

COc1cccc(CCNC(=O)[C@@H]2CC(=O)N(C)[C@@H](CC3CCCC3)C(=O)N(C[C@H]3CCCCO3)CC(=O)N[C@H](Cc3ccccc3)COc3cccc(OC)c3C(=O)N2)c1 [Example 313, (3R,9S,13S)-3-benzyl-9-(cyclopentylmethyl)-16-methoxy-N-(3-methoxyphenethyl)-10-methyl-5,8,11,15-tetraoxo-7-(((R)-tetrahydro-2H-pyran-2-yl)methyl)-2,3,4,5,6,7,8,9,10,11,12,13,14,15-tetradecahydrobenzo[p][1]oxa[4,7,10,14]tetraazacycloheptadecine-13-carboxamide]
EC50: 313 nM
Emax: 119%

COc1cccc(CCNC(=O)[C@@H]2CC(=O)N(C)[C@@H](CC3CCCCC3)C(=O)N(C[C@@H]3CCCCO3)CC(=O)N[C@H](Cc3ccccc3)COc3cccc(OC)c3C(=O)N2)c1 [Example 314, (3R,9S,13S)-3-benzyl-9-(cyclohexylmethyl)-16-methoxy-N-(3-methoxyphenethyl)-10-methyl-5,8,11,15-tetraoxo-7-(((S)-tetrahydro-2H-pyran-2-yl)methyl)-2,3,4,5,6,7,8,9,10,11,12,13,14,15-tetradecahydrobenzo[p][1]oxa[4,7,10,14]tetraazacycloheptadecine-13-carboxamide]
EC50: 469 nM
Emax: 111%

COc1cccc(CCNC(=O)[C@@H]2CC(=O)N(C)[C@@H](CC(C)C)C(=O)N(CCC3CCCCC3)CC(=O)N[C@H](Cc3ccccc3)COc3cnc4ccccc4c3C(=O)N2)c1 [Example 315, (3S,7S,13R)-13-benzyl-9-(2-cyclohexylethyl)-7-isobutyl-N-(3-methoxyphenethyl)-6-methyl-1,5,8,11-tetraoxo-1,2,3,4,5,6,7,8,9,10,11,12,13,14-tetradecahydro-[1]oxa[4,7,10,14]tetraazacycloheptadecino[17,16-c]quinoline-3-carboxamide]
EC50: 115 nM
Emax: 349%

[2H]C([2H])([2H])Oc1cccc(CCNC(=O)[C@@H]2CC(=O)N(C)[C@@H](CC(C)C)C(=O)N(CCC3CCCCC3)CC(=O)N[C@H](Cc3ccccc3)COc3cnc4ccccc4c3C(=O)N2)c1 [Example 316, (3S,7S,13R)-13-benzyl-9-(2-cyclohexylethyl)-7-isobutyl-N-(3-(methoxy-d3)phenethyl)-6-methyl-1,5,8,11-tetraoxo-1,2,3,4,5,6,7,8,9,10,11,12,13,14-tetradecahydro-[1]oxa[4,7,10,14]tetraazacycloheptadecino[17,16-c]quinoline-3-carboxamide]
EC50: 55 nM
Emax: 343%

COc1cccc(CCNC(=O)[C@@H]2CC(=O)N(C)[C@@H](CC(C)C)C(=O)N(C)CC(=O)N[C@H](Cc3ccccc3)COc3cccc(OC(F)(F)F)c3C(=O)N2)c1 [Example 317, (3R,9S,13S)-3-benzyl-9-isobutyl-N-(3-methoxyphenethyl)-7,10-dimethyl-5,8,11,15-tetraoxo-16-(trifluoromethoxy)-2,3,4,5,6,7,8,9,10,11,12,13,14,15-tetradecahydrobenzo[p][1]oxa[4,7,10,14]tetraazacycloheptadecine-13-carboxamide]
EC50: 661 nM
Emax: 89%

CC(C)C[C@H]1C(=O)N(C)CC(=O)N[C@H](Cc2ccccc2)COc2cnc3ccccc3c2C(=O)N[C@H](C(=O)NCCc2ccc3c(c2)OCO3)CC(=O)N1C [Example 318, (3S,7S,13R)-N-(2-(benzo[d][1,3]dioxol-5-yl)ethyl)-13-benzyl-7-isobutyl-6,9-dimethyl-1,5,8,11-tetraoxo-1,2,3,4,5,6,7,8,9,10,11,12,13,14-tetradecahydro-[1]oxa[4,7,10,14]tetraazacycloheptadecino[17,16-c]quinoline-3-carboxamide]
EC50: 679 nM
Emax: 295%
